From publication PMC9650428, “Mutagenesis and functional analysis of SotB: A multidrug transporter of the major facilitator superfamily from Escherichia coli” (Frontiers in Microbiology, 2022)
Where a chain is given by its changes, count along the chain named. Where two headings read alike, the source gives them in different places.

What was measured:
MdfA = biological target: MdfA; parameters: method as in Heng et al., 2015; details: ref Heng et al., 2015; read-out: Binding affinity between MdfA and the substrate; cited from earlier work
SotB [1] = biological target: T1, SotB (Escherichia coli, UniProt P31122); assay: SPR affinity assay, wild-type SotB; type: binding
T1 construct: The full-length sotB and lapC genes from the E. coli MG1655 genome were subcloned into the cloning vector pET28a; 8xHis (C); made in house; host or cells: E. coli C43(DE3)
Description: (§1) The instrument used in surface plasmon resonance (SPR) affinity assays was OpenSPR (Nicoya, Canada) and the chip used was COOH sensor chip (Nicoya, Canada). SotB and its variants were as ligands. IPTG, L-arabinose, D-xylose, D-glucose, D-fructose, and D-mannose were as small molecules. Using HSB-EP buffer (10 mM HEPES, 150 mM NaCl, 3 mM EDTA, 0.005% Tween-20, pH7.4) as test buffer and setting flow rate 150 μl/min after installed COOH chip according to OpenSPRTM instrument standard operating procedure. After the signal baseline was reached, loading 200 μl 80% isopropyl alcohol and ran for 10 s to drain bubbles. After reaching baseline, the sample ring was rinsed with HSB-EP buffer and emptied with air. After the signal reached the baseline, loading 200 μl EDC (400 mM, Sigma)/NHS (100 mM, Sigma; 1:1) solution with a flow rate 20 μl/min for 4 min. Then, loading 200 μl ligand (SotB/SotB variants) diluted by the activation buffer (sodium acetate, 10 mM, pH3.5) and ran for 4 min (20 μl/min). Then the sample ring was rinsed with HSB-EP buffer and emptied with air. Loading 200 μl 1 M ethanolamine (Sigma) blocking solution (20 μl/min, 4 min), rinsed the sample ring with HSB-EP buffer, and emptied the sample ring with air. Observing baseline for 5 min to ensure stability. The small molecules were diluted with PBS buffer (2 mM of KH2PO4, 10 mM of Na2HPO4, 2.7 mM of KCl, and 137 mM of NaCl at pH 7.4), and the concentration was shown in the experimental results. The flow rate for small molecules was performed at 20 μl/min. The binding time of small molecule and ligand was 240 s, and the dissociation was 240 s. The analysis software used for the experimental results was TraceDrawer, and the analysis method was one-to-one analysis model.

[2] = system: intact E. coli MG1655 strain; assay: Growth curve (L-arabinose inhibition / D-xylose competition) assay, intact MG1655; type: cell-based, Escherichia coli
Excerpt: In the process of sotB gene knockout, two plasmids were introduced into E. coli MG1655 strain: the plasmid pEcCas expressing Cas9 protein (kanamycin resistance) and the plasmid pEcgRNA/sotB expressing related gRNA (spectinomycin resistance). The pEcCas plasmid was successfully eliminated in this study. […] Thus, the sotB-deletion strain has resistance to spectinomycin. In order to carry out the related L-arabinose inhibition assay more strictly, the same plasmid (pEcgRNA/sotB) was then transformed into intact E. coli MG1655 cells, and the growth conditions of the two strains were measured as follows: The E. coli MG1655 cells (intact cells and sotB-deletion cells) were grown in liquid LB medium containing spectinomycin (50 μg/ml) at 37°C for overnight. The cells were then diluted to an OD600 value of 0.8 with liquid LB medium containing spectinomycin (50 μg/ml). Then, the cells were further diluted 1,000 times with liquid LB medium containing spectinomycin (50 μg/ml). The diluted cells were added to a 96-well plate (200 μl/well). Then, L-arabinose was added with final concentrations of 0 μM, 10 μM, 100 μM, 1 mM, 10 mM, and 100 mM, respectively. The 96-well plate was incubated at 37°C, and the OD600 value was measured every 1 h with a microplate reader. For the competition assay, the intact MG1655 cells diluted 1,000 times were divided into two parts and then added into 96-well plate (200 μl/well). One part was directly added with D-xylose at a final concentration of 0, 1, and 10 mM, respectively; the other part was first added with L-arabinose at a final concentration of 10 mM, then D-xylose was added with final concentrations of 0, 1, and 10 mM, respectively. The method of growth curve measurement is the same as above. All the experiments were repeated at least three times.

XlyE = biological target: XlyE; parameters: method as in Sun et al., 2012; details: ref Sun et al., 2012; read-out: Binding affinity between XlyE and its substrate; cited from earlier work
SotB [3] = biological target: T1, SotB; details: ref Koita and Rao, 2012; cited from earlier work
SotB E29A = biological target: T2, SotB E29A (Escherichia coli, UniProt P31122, E29A); assay: SPR affinity assay, SotB variant E29A; details: read-out: KD, binding affinity with E29A
T2 construct: The full-length sotB and lapC genes from the E. coli MG1655 genome were subcloned into the cloning vector pET28a; 8xHis (C); made in house; host or cells: E. coli C43(DE3)
T2 sequence (P31122 1-396 E29A): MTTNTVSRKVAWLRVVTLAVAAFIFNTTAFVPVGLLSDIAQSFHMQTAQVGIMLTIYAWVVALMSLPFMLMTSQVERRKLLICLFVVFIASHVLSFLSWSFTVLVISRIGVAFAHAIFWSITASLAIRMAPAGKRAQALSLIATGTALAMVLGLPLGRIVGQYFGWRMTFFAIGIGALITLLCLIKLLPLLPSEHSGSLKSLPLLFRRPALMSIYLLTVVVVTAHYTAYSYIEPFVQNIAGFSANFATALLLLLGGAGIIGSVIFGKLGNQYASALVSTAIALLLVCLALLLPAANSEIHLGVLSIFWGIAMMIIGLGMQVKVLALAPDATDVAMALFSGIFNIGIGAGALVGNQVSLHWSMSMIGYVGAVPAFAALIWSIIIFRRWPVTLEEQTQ
Description: as §1, with “The small molecules were diluted with PBS buffer (2 mM of KH2PO4, 10 mM of Na2HPO4, 2.7 mM of KCl, and 137 mM of NaCl at pH 7.4), and the concentration was shown in the experimental results. The flow rate for small molecules was performed at 20 μl/min. The binding time of small molecule and ligand was 240 s, and the dissociation was 240 s. The analysis software used for the experimental results was TraceDrawer, and the analysis method was one-to-one analysis model.” left out

SotB H115A = biological target: T3, SotB H115A (Escherichia coli, UniProt P31122, H115A); assay: SPR affinity assay, SotB variant H115A; type: binding; details: SotB variant H115A, read-out: KD, binding affinity with H115A
T3 construct: The full-length sotB and lapC genes from the E. coli MG1655 genome were subcloned into the cloning vector pET28a; 8xHis (C); made in house; host or cells: E. coli C43(DE3)
T3 sequence (P31122 1-396 H115A): T2 sequence (P31122 1-396 E29A) with A29E, H115A
Description: as §1

SotB W119A = biological target: T4, SotB W119A (Escherichia coli, UniProt P31122, W119A); assay: SPR affinity assay, SotB variant W119A; details: read-out: KD, binding affinity with W119A
T4 construct: The full-length sotB and lapC genes from the E. coli MG1655 genome were subcloned into the cloning vector pET28a; 8xHis (C); made in house; host or cells: E. coli C43(DE3)
T4 sequence (P31122 1-396 W119A): T2 sequence (P31122 1-396 E29A) with A29E, W119A
Description: as §1, with “The small molecules were diluted with PBS buffer (2 mM of KH2PO4, 10 mM of Na2HPO4, 2.7 mM of KCl, and 137 mM of NaCl at pH 7.4), and the concentration was shown in the experimental results. The flow rate for small molecules was performed at 20 μl/min. The binding time of small molecule and ligand was 240 s, and the dissociation was 240 s. The analysis software used for the experimental results was TraceDrawer, and the analysis method was one-to-one analysis model.” left out

SotB S339A = biological target: T5, SotB S339A (Escherichia coli, UniProt P31122, S339A); assay: SPR affinity assay, SotB variant S339A; details: read-out: KD, binding affinity with S339A
T5 construct: The full-length sotB and lapC genes from the E. coli MG1655 genome were subcloned into the cloning vector pET28a; 8xHis (C); made in house; host or cells: E. coli C43(DE3)
T5 sequence (P31122 1-396 S339A): T2 sequence (P31122 1-396 E29A) with A29E, S339A
Description: as §1, with “The small molecules were diluted with PBS buffer (2 mM of KH2PO4, 10 mM of Na2HPO4, 2.7 mM of KCl, and 137 mM of NaCl at pH 7.4), and the concentration was shown in the experimental results. The flow rate for small molecules was performed at 20 μl/min. The binding time of small molecule and ligand was 240 s, and the dissociation was 240 s. The analysis software used for the experimental results was TraceDrawer, and the analysis method was one-to-one analysis model.” left out

SotB N343A = biological target: T6, SotB N343A (Escherichia coli, UniProt P31122, N343A); assay: SPR affinity assay, SotB variant N343A; type: binding; details: SotB variant N343A, read-out: KD, binding affinity with N343A
T6 construct: The full-length sotB and lapC genes from the E. coli MG1655 genome were subcloned into the cloning vector pET28a; 8xHis (C); made in house; host or cells: E. coli C43(DE3)
T6 sequence (P31122 1-396 N343A): T2 sequence (P31122 1-396 E29A) with A29E, N343A
Description: as §1

FucP = biological target: FucP; parameters: method as in Dang et al., 2010; details: ref Dang et al., 2010; read-out: Binding affinity between FucP and the substrate; cited from earlier work
MelB = biological target: MelB; parameters: method as in Ethayathulla et al., 2014; details: ref Ethayathulla et al., 2014; read-out: Binding affinity between MelB and the substrate; cited from earlier work
SotB [4] = biological target: T1, SotB; assay: Cell based radiotracer uptake assay; details: E. coli C43(DE3), 0.1 μM tracer, 1 h, p < 0.01
Description: The cell-based uptake assay was performed with the following protocol. Plasmids pET28a and pET28a/sotB were transformed into E. coli C43(DE3) competent cells, respectively. Then, these two kinds of cells were grown in LB medium at 37°C and induced with 0.2 mM IPTG for 1 h, when the cell density reached an OD600 of about 1.5. Cells were then harvested by centrifugation. After being washed three times with MK buffer (150 mM KCl, 5 mM MES, pH 6.5), the cells were resuspended in the same buffer to an OD600 of 2.0. To measure the transport activity of SotB protein, took 5 ml of the above cell suspension, respectively, and added ^3H-L-arabinose (American Radiolabeled Chemicals) at a final concentration of 0.1 μM. All the reactions lasted 1 h and were stopped by diluting the cell suspension with 5 ml ice-cold MK buffer. Cells were then harvested by centrifugation. After being washed three times with ddH2O, the cells were resuspended in 5 ml ddH2O, respectively. Then the cells were added to the sample bottle, respectively, and mixed with the same volume of excess scintillation, and then taken for liquid scintillation counting. All the experiments were repeated at least three times.

[5] = SPR, wild-type SotB immobilised, one-to-one model, read-out: KD (equilibrium dissociation constant), binding affinity with SotB

T1 sequence (P31122 whole entry): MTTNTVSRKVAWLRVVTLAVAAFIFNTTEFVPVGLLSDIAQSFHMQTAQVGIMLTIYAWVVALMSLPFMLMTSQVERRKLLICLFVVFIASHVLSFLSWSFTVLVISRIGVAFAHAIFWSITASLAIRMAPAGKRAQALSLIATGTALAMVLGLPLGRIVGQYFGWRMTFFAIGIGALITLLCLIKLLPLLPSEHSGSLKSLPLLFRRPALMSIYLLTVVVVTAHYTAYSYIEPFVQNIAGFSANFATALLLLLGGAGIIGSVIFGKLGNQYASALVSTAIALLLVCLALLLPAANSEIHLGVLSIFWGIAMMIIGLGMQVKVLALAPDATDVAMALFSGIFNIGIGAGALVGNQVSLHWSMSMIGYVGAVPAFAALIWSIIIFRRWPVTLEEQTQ

O=C(N[C@H](CO)[C@H](O)c1ccc([N+](=O)[O-])cc1)C(Cl)Cl [Chloramphenicol]
Kd (MdfA): 75 µM

O=C(CO)[C@@H](O)[C@H](O)[C@H](O)CO [D-fructose]
Kd (SotB [1]): 6.6 mM

OC[C@H]1OC(O)[C@H](O)[C@@H](O)[C@@H]1O (stereo partly drawn) [D-glucose]
Kd (SotB [1]; [5]): 2.6 mM

OC[C@H]1OC(O)[C@@H](O)[C@@H](O)[C@@H]1O (stereo partly drawn) [D-mannose]
Kd (SotB [1]; [5]): 3.1 mM

O=C[C@H](O)[C@@H](O)[C@H](O)CO [D-xylose]
Binding affinity to SotB, fold higher than that of L-arabinose to SotB (SotB [1]; SPR, wild-type SotB): 8.7 fold
Kd (SotB [1]; [5]): 0.47 mM
Effect on growth (OD600 growth curve) ([2]; intact MG1655, 1 mM D-xylose, without L-arabinose): did not cause any growth inhibition
Effect on growth (OD600 growth curve) ([2]; intact MG1655, 10 mM D-xylose in the presence of 10 mM L-arabinose): inhibit the growth
Effect on growth (OD600 growth curve) ([2]; intact MG1655, 10 mM D-xylose, without L-arabinose): did not cause any growth inhibition
Kd (XlyE): 350 µM
Transport by SotB (SotB [3]): cannot transport

CC(C)S[C@@H]1O[C@H](CO)[C@H](O)[C@H](O)[C@H]1O [IPTG, isopropyl-β-D-1-thiogalactopyranoside]
Binding affinity with SotB, fold lower than that of L-arabinose with SotB (SotB [1]; SPR, wild-type SotB): ~2.5 fold
Kd (SotB [1]; [5]): 10.2 mM
Kd (SotB E29A): 7.6 mM
Kd (SotB H115A): 13.7 mM
Kd (SotB W119A): 6.7 mM
Kd (SotB S339A): 7.6 mM
Kd (SotB N343A): 15 mM

C[C@H](O)[C@@H](O)[C@@H](O)[C@H](O)C=O [fucose]
Kd (FucP): 470 µM

OC[C@H]1O[C@H](OCC2O[C@@H](O)[C@H](O)[C@@H](O)[C@@H]2O)[C@H](O)[C@@H](O)[C@H]1O (stereo partly drawn) [melibiose]
Kd (MelB): 1 mM

^3H-L-arabinose
Accumulation in cells expressing wild-type SotB relative to empty vector pET28a (SotB [4]): significant reduced accumulation
